Measured values taken from patent US9663478B2, “Benzotriazine oxides as drugs targeting Mycobacterium tuberculosis” (priority 2011, dated 2017).
≈ marks a conversion by molar mass, not a printed value. Where two headings read alike, the source gives them in different places.

Columns and labels:
[1] = tested on: NRP Mtb H37Rv cells; assay: Low-oxygen recovery assay (LORA) MIC; assay type: cell-based, Mycobacterium tuberculosis; details: for MIC: Mycobacterium tuberculosis, H37RV, read-out: LORA MIC - ITR
[2] = tested on: Vero cells
[3] = tested on: Mtb H37Rv; assay: TB MIC - ITR (UIC), Institute for Tuberculosis Research; assay type: cell-based, Mycobacterium tuberculosis; details: for MIC: Mycobacterium tuberculosis, H37RV, read-out: TB MIC - ITR
[4] = tested on: Mtb H37Rv; assay: TB MIC - SRI, resazurin-based microplate assay; assay type: cell-based, Mycobacterium tuberculosis; details: for MIC: Mycobacterium tuberculosis, H37RV
[5] = Tables 1-4 and text, read-out: TB MIC - SRI

Row | SMILES | MIC ([1]; NRP Mtb, Tables 1-4 and text) | Vero Tox CC50 ([2]; African green monkey, 72 h) | MIC ([3]; Tables 1-4) | MIC [4, 5] | also measured
1 | [O-][n+]1nc(N[C@@H]2C[C@H]3CC[C@@H]2C3)[n+]([O-])c2ccc(F)cc21 (racemic) [SRI-012280] | – | – | – | – | LORA MIC ([1]; Tables P1, P2, non-replicating M. tuberculosis): 0.21 µg/mL; VERO Tox-SRI ([2]; African green monkey, 72 h): <2.5; TB MIC - UIC ([3]; Tables P1, P2): < 0.125 µg/mL; MIC ([4]; Tables P1-P3, read-out: TB MIC - SRI): 0.312 µg/mL (≈ 1.07 µM)
2 | COCCNC(=O)c1ccc2c(c1)[n+]([O-])c(C(C)=O)c(C)[n+]2[O-] [Cmpd 5] | > 32 µg/mL | >16 µg/mL | 27 µg/mL (≈ 84.6 µM) | 10 µg/mL (≈ 31.3 µM) | –
3 | CC(C)(C)Nc1n[n+]([O-])c2ccccc2[n+]1[O-] [Compound 8c, 3-(tert-butylamino)benzo[e][1,2,4]triazine 1,4-dioxide] | 0.82 µg/mL (≈ 3.5 µM) | 8.0 µg/mL | 1.9 µg/mL (≈ 8.11 µM) | 1.2 µg/mL (≈ 5.12 µM) | MIC ([4]; Table 5, read-out: MIC, H37Rv): 2.5 µg/mL (≈ 10.7 µM)
4 | [O-][n+]1nc(NC2CCCC2)[n+]([O-])c2ccccc21 [Compound 8e, 3-(cyclopentylamino)benzo[e][1,2,4]triazine 1,4-dioxide] | 0.68 µg/mL (≈ 2.76 µM) | 10 µg/mL | 3.6 µg/mL (≈ 14.6 µM) | 2.5 µg/mL (≈ 10.2 µM) | –
5 | CCCC(C)Nc1n[n+]([O-])c2ccccc2[n+]1[O-] (stereo not shown) [Compound 8h, 3-(pentan-2-ylamino)benzo[e][1,2,4]triazine 1,4-dioxide] | 0.99 µg/mL (≈ 3.99 µM) | 26 µg/mL | 1.9 µg/mL (≈ 7.65 µM) | 5 µg/mL (≈ 20.1 µM) | –
6 | C[C@@H](Nc1n[n+]([O-])c2ccccc2[n+]1[O-])C1CCCCC1 [Compound 8k, (R)-3-((1-cyclohexylethyl)amino)benzo[e][1,2,4]triazine 1,4-dioxide] | 0.36 µg/mL (≈ 1.25 µM) | 8.9 µg/mL | 0.92 µg/mL (≈ 3.19 µM) | 1.2 µg/mL (≈ 4.16 µM) | –
7 | [O-][n+]1nc(N[C@@H]2C[C@H]3CC[C@@H]2C3)[n+]([O-])c2ccccc21 [Compound 8m, 3-((1R,2R,4S)-bicyclo[2.2.1]heptan-2-ylamino)benzo[e][1,2,4]triazine 1,4-dioxide] | 0.42 µg/mL (≈ 1.54 µM) | 3.4 µg/mL | 0.6 µg/mL (≈ 2.2 µM) | 0.62 µg/mL (≈ 2.28 µM) | –
8 | [O-][n+]1nc(N[C@H]2[C@@H]3C[C@H]4C[C@@H](C3)C[C@@H]2C4)[n+]([O-])c2ccccc21 [Compound 8n, 3-((1R,3S,5r,7r)-adamantan-2-ylamino)benzo[e][1,2,4]triazine 1,4-dioxide] | – | – | – | – | LORA MIC - ITR ([1]; NRP Mtb, Tables 1-4 and text): 2.3 µg/mL; Vero Tox CC50 [2]: 7.3 µg/mL; TB MIC - ITR ([3]; Tables 1-4): 1.9 µg/mL; TB MIC - SRI ([4]; Tables 1-4 and text): 2.5 µg/mL
9 | [O-][n+]1nc(NC2CC2)[n+]([O-])c2ccc(F)cc21 [Compound 15ab, 3-(cyclopropylamino)-7-fluorobenzo[e][1,2,4]triazine 1,4-dioxide] | – | 1.3 µg/mL | 0.93 µg/mL (≈ 3.94 µM) | 0.31 µg/mL (≈ 1.31 µM) | MIC [1]: 3.5 µg/mL (≈ 14.8 µM)
10 | [O-][n+]1nc(NC2CCC2)[n+]([O-])c2ccc(F)cc21 [Compound 15ad, 3-(cyclobutylamino)-7-fluorobenzo[e][1,2,4]triazine 1,4-dioxide] | – | 1.6 µg/mL | 0.4 µg/mL (≈ 1.6 µM) | 0.31 µg/mL (≈ 1.24 µM) | MIC [1]: 0.88 µg/mL (≈ 3.52 µM)
11 | [O-][n+]1nc(N[C@@H]2C[C@H]3CC[C@@H]2C3)[n+]([O-])c2ccc(F)cc21 [Compound 15am, 3-((1R,2R,4S)-bicyclo[2.2.1]heptan-2-ylamino)-7-fluorobenzo[e][1,2,4]triazine 1,4-dioxide] | 0.21 µg/mL (≈ 0.723 µM) | <2.5 µg/mL | < 0.12 µg/mL | 0.31 µg/mL (≈ 1.07 µM) | –
12 | CCNc1n[n+]([O-])c2cc(Cl)ccc2[n+]1[O-] [Compound 15ba, 7-chloro-3-(ethylamino)benzo[e][1,2,4]triazine 1,4-dioxide] | 0.41 µg/mL (≈ 1.7 µM) | 2.6 µg/mL | < 0.12 µg/mL | 1.2 µg/mL (≈ 4.99 µM) | –
13 | [O-][n+]1nc(NC2CC2)[n+]([O-])c2ccc(Cl)cc21 [Compound 15bb, 7-chloro-3-(cyclopropylamino)benzo[e][1,2,4]triazine 1,4-dioxide] | 0.22 µg/mL (≈ 0.871 µM) | 1.3 µg/mL | 0.21 µg/mL (≈ 0.831 µM) | 0.62 µg/mL (≈ 2.45 µM) | –
14 | [O-][n+]1nc(NC2CCCCC2)[n+]([O-])c2ccc(Cl)cc21 [Compound 15bf, 7-chloro-3-(cyclohexylamino)benzo[e][1,2,4]triazine 1,4-dioxide] | 0.63 µg/mL (≈ 2.14 µM) | 2.6 µg/mL | 0.94 µg/mL (≈ 3.19 µM) | 0.62 µg/mL (≈ 2.1 µM) | –
15 | [O-][n+]1nc(N[C@@H]2C[C@H]3CC[C@@H]2C3)[n+]([O-])c2ccc(Cl)cc21 [Compound 15bm, 3-((1R,2R,4S)-bicyclo[2.2.1]heptan-2-ylamino)-7-chlorobenzo[e][1,2,4]triazine 1,4-dioxide] | 0.23 µg/mL (≈ 0.75 µM) | 1.1 µg/mL | 0.22 µg/mL (≈ 0.717 µM) | 0.15 µg/mL (≈ 0.489 µM) | –
